The term IC20 denotes the concentration needed for an effect of 20%. A higher IC20 goes with a need for much substance. As a reminder, the IC50 is the point on the concentration scale where inhibition reaches its midpoint. Lower therefore signals greater potency in that assay.

Here are results for three compounds from patent US20180252703A1, “AN IN VITRO 3D CELL CULTURE MODEL-BASED TUMOR RELAPSE ASSAY” (INSPHERO AG, priority 2015, published 2018).

Assay [1] concerns HCT-116 3D InSight colorectal cancer microtissues. The experiment in a line: Dose response of HCT-116 3D microtissues by size (area) after 5 days of compound exposure. In kind it is cell-based. The conditions noted are these: Homo sapiens, HCT-116, 120 h; tissue size (area), after 5 days exposure. On the procedure: After microtissue formation, spheroids were transferred into GravityTRAP™ plates for further experiments. Medium was refreshed at days 4, 6 and 8 post-transfer to assay plates.
From the stock solutions, two-fold serial dilutions in DMSO were prepared for each compound, leading to 200× concentrated working dilutions.
(§1) Microtissues were treated in GravityTRAP™ plates with the indicated compound dilutions (n=4), leading to 0.5% DMSO in the cell culture medium. As a control, microtissues were exposed to 0.5% DMSO without a compound. Upon medium exchange, compounds were re-added where indicated. The treatment was performed over 10 days, however, for 2 tissues per group, the compound exposure was discontinued after 5 days and they were thereafter incubated in medium without compound (n=2).
IC20 and IC50 values were determined by plotting the tissue size over the compound concentration after incubation over 5 days.
(§2) GravityTRAP™ plates containing treated microtissues were scanned with Cell^3iMager (Dainippon, Japan) with a resolution of 4800 dpi. Microtissue size was assessed with the software provided by the manufacturer.
(§3) Air bubbles interfering with the size analysis were excluded manually, either by adjusting the image section to be analyzed by the software or by cropping the area designated to a microtissue after size measurement. The acquired data was normalized to the non-treated control (S=size of microtissue).
Dose response based on the size (area) of the tumor microtissue were used to define IC20, IC50 and the lowest maximum response concentration [nM].

Assay [2] shares this test system. Briefly: Tumor relapse assay: 5-day pulsed versus 10-day continuous treatment of HCT-116 microtissues, read by size and intra-tissue ATP, relapse index ReI. In kind it is cell-based. The conditions noted are these: for ReI at IC50, times higher than at IC20: ReI at IC50 relative to ReI at IC20; for tumor relapse index (ReI): 5-day pulsed treatment, growth profiles over 10 days; for growth after the 5-day treatment: at the respective IC50 concentration; for tumor re-growth after removing the compound after a 5-day treatment: lower drug concentrations: 6 nM taxol, 50 nM doxorubicin, 125 nM staurosporine, size or intra-tissue ATP content; for phenotype of re-growth after drug removal: phenotypic analysis, taxol at low concentrations (6 nM). Here is the method:
as §1, §2, §3
In order to determine the number of viable cells per microtissue, the amount of intracellular ATP as a measure for metabolic activity was determined by using CellTiter-Glo® Luminescent Cell Viability Assay (Promega; Madison, USA). The assay was performed according to the manufacturer's protocol with slight adaptations specific to microtissues. In brief, supernatant was removed and lysis of microtissues initiated by adding 40 μl diluted CellTiter-Glo Reagent (1:2 in PBS). The cell lysis was enhanced by pipetting up and down prior to transfer into an opaque white assay plate. […] The acquired data was normalized to the non-treated control:
To generate the tumor relapse index the growth profiles of the pulsed treatment groups were compared to the growth curves of the vehicle-only treated microtissues and the lowest maximum concentration treated group (FIG. 7). The impact of the pulsed drug treatment was set relative to the control and the maximum response of the respective drug (FIGS. 5 and 6).
To determine a tumor relapse index, the sizes (e.g., diameter, volume or area of an optical cross section) of at least one 3-dimensional cell culture or tissue in the continuous treatment group, the pulsed treatment group and the untreated control group are determined at a given point of time (endpoint measurement).
Then, (i) the difference (e.g., d2) between the size of at least one 3-dimensional cell culture or tissue in the continuous treatment group and at least one 3-dimensional cell culture or tissue in the pulsed treatment group is formed, and
(ii) the difference (e.g., d1) between the size of at least one 3-dimensional cell culture or tissue in the pulsed treatment group and at least one 3-dimensional cell culture or tissue in the untreated control group is formed.
Then, a quotient is formed out of the two differences (e.g., d1/d^2) to deliver a tumor relapse index. Such tumor relapse indices can be determined for different inhibitory concentration of the respective anti-cancer agents.

Take `COc1cccc2c1C(=O)c1c(O)c3c(c(O)c1C2=O)C[C@@](O)(C(=O)CO)C[C@@H]3O[C@H]1C[C@H](N)[C@H](O)[C@H](C)O1` [doxorubicin]: in assay [1], it took 50 nM to reach the 20% level (IC20) and it took 200 nM to reach half-maximal inhibition (IC50). In assay [2] (50 nM treated group compared with 100 nM treated group), the “capacity to re-grow after drug removal” value is “stronger capacity to re-grow”. Moreover, in assay [2], the “ReI at IC50, times higher than at IC20” value is given as 6.6 times; the “growth after the 5-day treatment” value is “the tumor was still able to grow”; the “tumor re-growth after removing the compound after a 5-day treatment” value (shortened to “tumor re-growth”) was “tumor re-growth was observed”; the “phenotype of re-growth after drug removal” value (“phenotype of re-growth” for short) is on record as “regrew symmetrically”. The “tumor relapse index (ReI)” value in assay [2] (at IC20 concentration) is on record as 0.32. The “tumor relapse index (ReI)” value in assay [2] (at IC50 concentration) was 2.1.

`CN[C@@H]1C[C@H]2O[C@@](C)([C@@H]1OC)n1c3ccccc3c3c4c(c5c6ccccc6n2c5c31)C(=O)NC4` [staurosporine] yielded an IC20 in assay [1] of 31.2 nM. Besides, the “re-growth compared to continuous treated counterparts” value in assay [2] (125 nM and 500 nM, drug removed after 5 days, size and intra-tissue ATP) is “re-grew substantially”. The “tumor relapse index (ReI)” value in assay [2] (at IC50 concentration) stood at 0.56. Further, in assay [2], the “growth after the 5-day treatment” value is “growth occurred even in a similar extent as in the non-treated control culture”, the “tumor re-growth” value is “tumor re-growth was observed” and the “phenotype of re-growth” value was “regrew symmetrically”.

In assay [1], `CC(=O)O[C@H]1C(=O)[C@@]2(C)[C@H]([C@H](OC(=O)c3ccccc3)[C@]3(O)C[C@H](OC(=O)[C@H](O)[C@@H](NC(=O)c4ccccc4)c4ccccc4)C(C)=C1C3(C)C)[C@]1(OC(C)=O)CO[C@@H]1C[C@@H]2O` [taxol] gave an IC20 of 6.25 nM and a half-inhibitory concentration (IC50) of 12.5 nM. Further, in assay [2], the “ReI at IC50, times higher than at IC20” value turned out to be 26 times; the “growth after the 5-day treatment” value was “hardly any growth could be observed”; the “tumor re-growth” value is “tumor re-growth was observed”; the “phenotype of re-growth” value is “regrew side-specific”. Further, in assay [2] (at IC20 concentration), the “tumor relapse index (ReI)” value was 0.59. For the same compound, in assay [2] (at IC50 concentration), the “tumor relapse index (ReI)” value was determined as 15.3. Also, the tumor removal result in assay [2] (high concentrations, after 5 days) is recorded as “nearly complete tumor removal”.
